In patent US8580301B2, “Psychostimulant containing pharmaceutical composition” (PEJO Iserlohn Heilmittel und Diaet GmbH & Co. KG, priority 2004, dated 2013):
Where a name gives a salt, the structure may show the parent alone.

What was measured:
[1] = Stability in alkaline solution; type: physicochemical
[2] = Solubility of methylphenidate hydrochloride in aqueous media / Ph. Eur. buffer solutions; type: physicochemical

In the case of COC(=O)C(c1ccccc1)C1CCCCN1 (stereo not drawn) [methylphenidate hydrochloride], the “stability in alkaline solution” value [1] is reported as “hydrolysis occurs”, the “solubility of the maximum daily dose of 60 mg in buffer solutions of the European Pharmacopoeia” value ([2]; 60 mg in 250 ml hydrochloric acid pH 1.2, or 250 ml potassium dihydrogen phosphate buffer pH 4.6 or 6.8) is reported as “dissolves easily” and the water solubility ([2]; aqueous media) is reported as “extremely water soluble”.
